Measured values: the NIST ThermoML archive (doi:10.1016/j.tca.2018.07.016)
Where “and” joins values, the source holds several entries; their conditions need not be identical. Identical values can stand only once. Numbers after ± are expanded uncertainties.

Conditions: Liquid, Transpiration method

C1CCCNCC1 [azacycloheptane]
Conditions	vapor or sublimation pressure [kPa]
275.3 K	0.2584 ± 0.017
278.3 K	0.3225 ± 0.02
281 K	0.3957 ± 0.025
284.2 K	0.4858 ± 0.031
287.3 K	0.604 ± 0.038
290.2 K	0.7427 ± 0.047
293.2 K	0.8989 ± 0.056
296.2 K	1.051 ± 0.065
302.2 K	1.525 ± 0.095
305.2 K	1.824 ± 0.12
308.1 K	2.177 ± 0.14
311.2 K	2.409 ± 0.15
314.2 K	3.025 ± 0.19
317.2 K	3.485 ± 0.21
321.2 K	4.037 ± 0.25

C1CCCNCCC1 [heptamethyleneimine]
Conditions	vapor or sublimation pressure
276.1 K	0.08722 ± 0.0056 kPa
279.6 K	0.1144 ± 0.0073 kPa
281.3 K	0.1316 ± 0.0083 kPa
285.2 K	0.1719 ± 0.011 kPa
288.3 K	0.22 ± 0.014 kPa
292.1 K	0.277 ± 0.017 kPa
292.3 K	0.2658 ± 0.017 kPa
295.2 K	0.3338 ± 0.021 kPa
299 K	0.4239 ± 0.026 kPa
299.2 K	0.4202 ± 0.026 kPa
302.1 K	0.5212 ± 0.033 kPa
306.1 K	0.6926 ± 0.043 kPa
309 K	0.8283 ± 0.052 kPa and 0.7923 ± 0.049 kPa
313 K	1.016 ± 0.063 kPa
317 K	1.311 ± 0.082 kPa
319.8 K	1.44 ± 0.089 kPa
322 K	1.585 ± 0.1 kPa
324.9 K	1.97 ± 0.12 kPa

C1CCCCNCCC1 [octamethylenimine]
Conditions	vapor or sublimation pressure [kPa]
274.6 K	0.01266 ± 0.00086
278.3 K	0.01754 ± 0.0011
283.3 K	0.02575 ± 0.0017
288.3 K	0.03757 ± 0.0024
293.2 K	0.05489 ± 0.0035
298.1 K	0.07468 ± 0.0047
304.1 K	0.1162 ± 0.0073
309.1 K	0.1671 ± 0.011
313.3 K	0.2073 ± 0.013
318.1 K	0.2813 ± 0.018
323.4 K	0.3868 ± 0.024
